# Target: T1, human p38 kinase alpha (Homo sapiens, UniProt Q16539)
# T1 construct: made in house; host or cells: E. coli DH10B
# Assay: p38 alpha kinase assay
# Type: biochemical
# Details: in vitro inhibition of activated human p38 kinase alpha; two formats described (PHAS-I/32P-ATP, EGFRP/33P-ATP), format used not stated; values given as ranges
# Protocol: The ability of compounds to inhibit human p38 kinase alpha was evaluated using two in vitro assay methods. In the first method, activated human p38 kinase alpha phosphorylates a biotinylated substrate, PHAS-I (phosphorylated heat and acid stable protein-insulin inducible), in the presence of gamma ^32P-ATP (^32P-ATP). PHAS-I was biotinylated prior to the assay and provides a means of capturing the substrate, which is phosphorylated during the assay. p38 Kinase was activated by MKK6. Compounds were tested in 10 fold serial dilutions over the range of 100 μM to 0.001 μM using 1% DMSO. Each concentration of inhibitor was tested in triplicate. All reactions were carried out in 96 well polypropylene plates. Each reaction well contained 25 mM HEPES pH 7.5, 10 mM magnesium acetate and 50µM unlabeled ATP. Activation of p38 was required to achieve sufficient signal in the assay. Biotinylated PHAS-I was used at 1-2 μg per 50 μl reaction volume, with a final concentration of 1.5 μM. Activated human p38 kinase alpha was used at 1 μg per 50 μl reaction volume representing a final concentration of 0.3 μM. […] The plates were sealed and counted. […] 150 μl of Microscint 40 was then added to each well of the Microlite plate, and the plate was sealed, mixed, and counted.
# T1 sequence (Q16539 whole entry): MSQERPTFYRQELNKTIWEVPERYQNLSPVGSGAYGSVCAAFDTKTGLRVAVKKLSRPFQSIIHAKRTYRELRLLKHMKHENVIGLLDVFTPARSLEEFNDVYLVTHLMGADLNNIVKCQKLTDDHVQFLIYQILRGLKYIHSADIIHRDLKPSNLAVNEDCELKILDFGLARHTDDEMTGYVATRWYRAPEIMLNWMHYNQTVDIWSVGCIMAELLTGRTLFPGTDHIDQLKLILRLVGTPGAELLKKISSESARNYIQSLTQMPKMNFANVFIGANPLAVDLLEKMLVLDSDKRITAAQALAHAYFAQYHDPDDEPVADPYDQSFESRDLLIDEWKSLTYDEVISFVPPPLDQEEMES
row,IC50 [µM],SMILES
1,40 to 60,"O=c1cc(OCCc2ccccc2)cnn1-c1c(Cl)cccc1Cl [Compound 48, 2-(2,6-dichlorophenyl)-5-(2-phenylethoxy)pyridazin-3(2H)-one]"
2,0.1 to 20,"Cc1c(OCCc2ccccc2)cnn(-c2c(Cl)cccc2Cl)c1=O [Compound 49, 2-(2,6-dichlorophenyl)-4-methyl-5-(2-phenylethoxy)pyridazin-3(2H)-one]"
